Measured values reported in ChEMBL document CHEMBL1201862, “PubChem BioAssay data set” (2004).
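Five compound concentrations were applied to cells in 96-well plates for 48 hours; endpoints were derived by simple linear interpolation of the resulting dose-response curve. GI50: concentration for 50% inhibition of growth.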 Activity calls are given as the source filed them. No stated cut-off is given here; in the data, active = GI50 up to about 1.1 µM and inactive = higher.

Experiments:
Test in all cases: NCI anticancer screen, dose series, 48 h
NCI-H522 = system: NCI-H522
SK-MEL-5 = system: SK-MEL-5
NCI-H460 = system: NCI-H460
SK-OV-3 = system: SK-OV-3
UO-31 = system: UO-31
SF-268 = system: SF-268
K562 = system: K562
RPMI-8226 = system: RPMI-8226
UACC-62 = system: UACC-62
SN12C = system: SN12C
HCC 2998 = system: HCC 2998
HOP-18 = system: HOP-18
HCT-116 = system: HCT-116
RXF 393 = system: RXF 393
SNB-78 = system: SNB-78
A549 = system: A549
SNB-75 = system: SNB-75
M14 = system: M14
XF498 = system: XF498
SNB-19 = system: SNB-19
KM12 = system: KM12
MOLT-4 = system: MOLT-4
IGROV-1 = system: IGROV-1
SF-539 = system: SF-539
LXFL 529 = system: LXFL 529
Malme-3M = system: Malme-3M
SR = system: SR
CCRF-CEM = system: CCRF-CEM
NCI-H226 = system: NCI-H226
HT-29 = system: HT-29
DMS-114 = system: DMS-114
KM-20L2 = system: KM-20L2
OVCAR-5 = system: OVCAR-5
786-0 = system: 786-0
COLO 205 = system: COLO 205
HOP-62 = system: HOP-62
TK-10 = system: TK-10
ACHN = system: ACHN
OVCAR-3 = system: OVCAR-3
M19-MEL = system: M19-MEL
HOP-92 = system: HOP-92
UACC-257 = system: UACC-257
NCI-H23 = system: NCI-H23
EKVX = system: EKVX
SF-295 = system: SF-295
SK-MEL-28 = system: SK-MEL-28
LOX IMVI = system: LOX IMVI
SW-620 = system: SW-620
DLD-1 = system: DLD-1
OVCAR-4 = system: OVCAR-4
HL-60 = system: HL-60
OVCAR-8 = system: OVCAR-8

Measured: GI50

COc1ccc2nc(-c3ccc(OCc4ccccc4)cc3)ccc2c1
inactive: NCI-H522 > 100 µM | SK-MEL-5 > 100 µM | NCI-H460 > 100 µM | SK-OV-3 > 100 µM | UO-31 > 100 µM | SF-268 > 100 µM | K562 > 100 µM | RPMI-8226 > 100 µM | UACC-62 > 100 µM | SN12C > 100 µM | HCC 2998 > 100 µM | HOP-18 > 100 µM | HCT-116 > 100 µM | RXF 393 > 100 µM | SNB-78 > 100 µM | A549 > 100 µM | SNB-75 > 100 µM | M14 > 100 µM | XF498 > 100 µM | SNB-19 > 100 µM | KM12 > 100 µM | MOLT-4 > 100 µM | IGROV-1 > 100 µM | SF-539 > 100 µM | LXFL 529 > 100 µM | Malme-3M > 100 µM | SR > 100 µM | CCRF-CEM > 100 µM | NCI-H226 > 100 µM | HT-29 > 100 µM | DMS-114 > 100 µM | KM-20L2 > 100 µM | OVCAR-5 > 100 µM | 786-0 > 100 µM | COLO 205 > 100 µM | HOP-62 > 100 µM | TK-10 > 100 µM | ACHN > 100 µM | OVCAR-3 > 100 µM | M19-MEL > 100 µM | HOP-92 > 100 µM | UACC-257 > 100 µM | NCI-H23 > 100 µM | EKVX > 100 µM | SF-295 > 100 µM | SK-MEL-28 > 100 µM | LOX IMVI > 100 µM | SW-620 > 100 µM | DLD-1 > 100 µM | OVCAR-4 > 100 µM | HL-60 > 100 µM | OVCAR-8 > 100 µM
